Laboratory results taken from patent publication US20070066682A1, “Arylalkylamine vanadium (V) salts for the treatment and/or prevention of Diabetes mellitus” (priority 2005, published 2007).

Columns and labels:
[1] = system: isolated rat adipocytes; assay: Glucose transport (2-deoxyglucose uptake) in isolated rat adipocytes; type: cell-based; conditions: isolated rat adipocytes; for stimulation of glucose transport in the presence of semicarbazide: 1 mM semicarbazide; for stimulation of glucose transport (2-DG uptake): 45 min incubation
Method: In order to determine whether salts formed by vanadate and benzylamine could produce an insulin mimetic effect, the effect of increasing concentrations of hexaquis(benzylammonium) decavanadate on glucose transport activity in isolated rat adipocytes was tested. […] In similar assays, the activity of hexaquis(benzylammonium) decavanadate, pentaquis(benzylammonium) decavanadate and tetraquis(benzylammonium) decavanadate on glucose transport activity in isolated rat adipocytes were analyzed.
To determine the possible insulin mimetic effect of certain vanadium arylalkylamines, the capacity of these compounds to enhance glucose transport in isolated rat adipocytes was tested. Adipose cells from Wistar rats were incubated for 45 minutes in basal conditions (Basal) or in the presence of 100 nM insulin (Ins), and different concentrations of. hexaquis(benzylammonium) decavanadate (B6V10) in the absence or in the presence of 1 mM semicarbazide (SCZ). Subsequently, 2-DG transport was measured over a 5 min. interval.
The effects of the three tested compounds (B6V10, B5V10 and B4V10) were compared. Adipose cells from Wistar rats were incubated for 45 minutes in basal conditions (Basal) or in the presence of 100 nM insulin (Ins), and different concentrations of. decavanadate (V10), hexaquis(benzylammonium) decavanadate (B6V10), pentaquis(benzylammonium) decavanadate (B5V10) or tetraquis(benzylammonium) decavanadate (B4V10) in the absence or in the presence of 1 mM semicarbazide (SCZ). 2-DG transport was measured over 5 min. intervals. […]
(§1) The effects of incubation with semicarbazide or phosphatidylinositol 3-kinase inhibitors were also investigated. Adipose cells were incubated with B6V10 (25 μM, 45 min) in the absence or presence of wortmannin (2 μM, 45 min), LY294002 (10 μM, 45 min) or semicarbazide (1 mM, 45 min) and thereafter 2-deoxyglucose uptake was determined during 5 min.

[2] = system: streptozotocin-induced diabetic rats; assay: Chronic subcutaneous (osmotic minipump) treatment of streptozotocin (45 mg/kg) diabetic rats, glycemia; type: in vivo, rat; conditions: 2.5 μmol/kg/day by osmotic minipumps, about two weeks, STZ 45 mg/kg rats
Method: (§2) Male Wistar rats weighting 180-220 g were purchased from Harlan (Interfauna Ibèrica S.A., Spain). Diabetes was induced by a single intraperitoneal injection of a freshly prepared solution of streptozotocin (in some studies the dose was 45 mg/kg body weight and in some others 100 mg/kg body weight dissolved in 50 mM citrate buffer, pH 4.5). Only diabetic animals with glycemia above 300 mg/dl were used. The animals were housed in animal quarters at 22° C., with a 12 h light/12 h dark cycle and were fed ad libitum. All procedures used were approved by the animal ethical committee of the University of Barcelona, Spain. Male mice C57 BL/Ks bearing the db/db mutation (Jackson Laboratories, Bar Harbor, Me.) were purchased from Harlan France (Gannat, France). C57BL/6J male mice were assigned for 16 weeks to very high-fat diet containing (in kcal): 72% from fat, 28% from proteins and <1% from carbohydrates (Burcelin et al., 2002, Am. J. Physiol. Endocrinol. Metab 282: E834-E842).
(§3) Osmotic minipumps delivering B6V10 (2.5 μmol/kg body wt/day) or decavanadate (2.5 μmol/kg body wt/day) were implanted subcutaneously in diabetic rats anaesthetised by ketamine hydrochloride (95 mg/kg) and xylasine (10 mg/kg). […] Glycemia was measured on arterio-venous blood collected from the tail vessels at 09:00 am for two weeks, before the administration of vanadate. Insulin concentrations were determined before and after treatment. In another set of experiments, B6V10 was orally administered at a single dose of 5 μmol/kg/day during the first week and 10 μmol/kg/day during 2 additional weeks by gastric gavage. A control group received the corresponding decavanadate salt in the absence of benzylamine. At the end of the treatment, animals were sacrificed and the liver, fat pad, heart and lung were kept at −80° C. and the plasma at −20° C. until their use for in vitro analysis.
(§4) In glucose tolerance tests and in chronic treatments, circulating glucose concentrations were determined by a rapid glucose analyser (Accutrend® Sensor Comfort, Roche, Basel. Switzerland). Plasma insulin (IRI) concentration was determined by ELISA method using a kit obtained from Crystal Chem Inc. (Downers Grove, Ill.). Plasma triglycerides (Biosystems, Barcelona, Spain) and NEFAS (Wako Chemicals, Neuss, Germany) were determined with standard […] methods.
The effect of chronic administration of hexaquis(benzylammonium) decavanadate on glycemia from diabetic rats was determined. Thus, diabetes was induced in rats by intravenous administration of streptozotocin, which destroys the β-pancreatic cells that produce insulin.
Chronic in vivo efficacy of B6V10 was evaluated in streptozotocin-induced diabetic rats and in db/db mice. Streptozotocin-induced (45 mg/kg) diabetic rats were subcutaneously treated with hexaquis(benzylammonium) decavanadate (2.5 μmol/kg) (B6V10, solid squares, FIG. 8A) or with decavanadate (2.5 μmol/kg) (V10, open circles, FIG. 8A) delivered subcutaneously by osmotic minipumps implanted in the dorsal region. Diabetic rats were also sham-operated (untreated, solid diamonds, FIG. 8A). […] These experiments were repeated using an oral administration protocol. Streptozotocin-induced (45 mg/kg) diabetic rats were orally treated with hexaquis(benzylammonium) decavanadate (5 μmol/kg from day 0 to day 7 and 10 μmol/kg/day from day 7 to day 17) (B6V10, solid squares, FIG. 8B) or received decavanadate (10 μmol/kg) (V10, open circles, FIG. 8B). […]

[3] = system: streptozotocin-induced diabetic rats; assay: Chronic oral treatment of streptozotocin (45 mg/kg) diabetic rats, glycemia; type: in vivo, rat; conditions: for glycemia during chronic oral treatment: daily oral, 17 days (5 then 10 μmol/kg/day), STZ 45 mg/kg rats
Method: as §2, §3, §4
The effect of the oral administration of hexaquis(benzylammonium) decavanadate on glycemia from diabetic rats was also studied. Diabetes was induced in rats by intravenous administration of streptozotocin, and subsequently, a hexaquis(benzylammonium) decavanadate or sodium decavanadate unique dose was administered to the rats. […] After seven days of treatment, the dose was increased at 10 μmol/kg/day which was maintained for an additional ten days. […] Thus, glycemia in sodium decavanadate treated rats was approximately 450 mg/dl and glycemia of hexaquis(benzylammonium) decavanadate treated rats was approximately 250 mg/dl.
Chronic in vivo efficacy of B6V10 was evaluated in streptozotocin-induced diabetic rats and in db/db mice. Streptozotocin-induced (45 mg/kg) diabetic rats were subcutaneously treated with hexaquis(benzylammonium) decavanadate (2.5 μmol/kg) (B6V10, solid squares, FIG. 8A) or with decavanadate (2.5 μmol/kg) (V10, open circles, FIG. 8A) delivered subcutaneously by osmotic minipumps implanted in the dorsal region. Diabetic rats were also sham-operated (untreated, solid diamonds, FIG. 8A). […] These experiments were repeated using an oral administration protocol. Streptozotocin-induced (45 mg/kg) diabetic rats were orally treated with hexaquis(benzylammonium) decavanadate (5 μmol/kg from day 0 to day 7 and 10 μmol/kg/day from day 7 to day 17) (B6V10, solid squares, FIG. 8B) or received decavanadate (10 μmol/kg) (V10, open circles, FIG. 8B). Nondiabetic rats were also untreated (solid triangles, FIG. 8B).

[4] = system: streptozotocin-induced diabetic rat with undetectable circulating insulin; assay: Subcutaneous treatment of streptozotocin (100 mg/kg) diabetic rats with undetectable circulating insulin; type: in vivo; conditions: 2.5 μmol/kg subcutaneous minipumps, STZ 100 mg/kg
Method: as §2, §4
To this end, rats were made diabetic by the injection of a large dose of streptozotocin (100 mg/kg) that eliminates β-pancreatic insulin content. […] These streptozotocin-induced diabetic rats were subcutaneously treated with B6V10 (2.5 μmol/kg) (solid squares, FIG. 9A) delivered by osmotic minipumps or left untreated (solid circles, FIG. 9A). Sham-operated nondiabetic rats were also untreated (solid triangles, FIG. 9A).
The concentration of circulating glucose under these conditions was also assayed. After 28 days of treating diabetic rats with hexaquis(benzylammonium) decavanadate (2.5 μmol/kg) (wide striped bars, FIG. 9B), or with decavanadate (close striped bars, FIG. 9B) delivered by osmotic minipumps, plasma insulin and glucose were measured. Untreated diabetic (solid bars, FIG. 9B) or nondiabetic rats (open bars, FIG. 9B) were similarly assayed as controls.

[5] = system: protein kinase B; assay: Protein kinase B phosphorylation in isolated rat adipocytes; type: cell-based; conditions: 25 μM, rat adipocytes
Method: Isolated fat cells were disrupted for total membrane preparation by hypo-osmotic lysis in a 20 mM HES buffer and an antiprotease and antiphosphatase cocktail as reported by Abella et al. (2003, Diabetes 52: 1004-1013). Protein concentrations were determined by the Bradford method (Bradford, 1976, Anal. Biochem. 72: 248-254) with gamma-globulin as protein concentration standard. Immunoprecipitation and immunoblot assays were performed as previously described by Abella et al. (2004, Id.) with the use of a monoclonal antiphosphotyrosine antibody for the immunoprecipitation and an anti-insulin receptor antibody for immunoblotting, respectively. SDS-polyacrylamide gel electrophoresis was performed on membrane proteins following conventional procedures. Proteins were transferred to Immobilon and immunoblotting was performed as reported by Castello et al. (1994, J. Biol. Chem. 269: 5905-5912).
The mechanism of action of B6V10 was investigated in isolated rat adipocytes. Adipose cells from Wistar rats were incubated for different times in the presence of 25 μM hexaquis(benzylammonium) decavanadate (B6V10). Cells were also incubated in the presence of insulin (100 nM, 45 min), decavanadate (25 μM, 45 min) or semicarbazide (1 mM, 45 min). Subsequently, 2-deoxyglucose uptake (results shown in FIG. 7A), tyrosine phosphorylation of insulin receptor (FIG. 7B), phospho-Thr^308-protein kinase B (FIG. 7C) and phospho-Ser^473-protein kinase B (FIG. 7D) was measured. […] The phosphorylation of protein kinase B induced by B6V10 was parallel to activation of glucose transport (FIG. 7C and 7D).
as §1

Substance: pentaquis(benzylammonium) decavanadate (V) dihydrate [Entry B5V10]
- stimulation of glucose transport in the presence of semicarbazide ([1]; dihydrate): blocked in the presence of semicarbazide
- stimulation of glucose transport in the presence of semicarbazide ([1]; listed as pentaquis(benzylammonium) decavanadate, dihydrate): this effect was inhibited
- stimulation of glucose transport (2-DG uptake) [1]: pronounced stimulation on glucose transport

Substance: Tetraquis(Benzylammonium) Decavanadate (V) Dihydrate [Entry B4V10]
- stimulation of glucose transport in the presence of semicarbazide ([1]; dihydrate): blocked in the presence of semicarbazide
- stimulation of glucose transport in the presence of semicarbazide ([1]; listed as tetraquis(benzylammonium) decavanadate, Dihydrate): this effect was inhibited
- stimulation of glucose transport (2-DG uptake) [1]: pronounced stimulation on glucose transport

Substance: sodium decavanadate [Entry V10, reference compound]
- stimulation of glucose transport (2-DG uptake) [1]: did not stimulate glucose transport
- glycemia during chronic subcutaneous treatment [2]: did not alter glycemia
- glycemia during chronic subcutaneous treatment ([2]; listed as sodium decavanadate): did not modify substantially its glycemia
- glycemia during chronic oral treatment [3]: did not alter glycemia
- glycemia during chronic oral treatment ([3]; listed as sodium decavanadate): not affected substantially
- glycemia ([3]; oral treatment, after dose increase to 10 μmol/kg/day): approximately 450 mg/dl
- glycemia in diabetic rats with undetectable insulin [4]: did not show any change in circulating glucose
- protein kinase B phosphorylation [5]: not observed
